Results from patent US11161850B2, “Fused pyrazine derivatives as A2A / A2B inhibitors” (Incyte Corporation, priority 2018, dated 2021).
Where two headings read alike, the source gives them in different places.

Columns and labels:
[1] = target: human adenosine A2B receptor (Homo sapiens (Human), UniProt P29275); test: Adenosine A2B Receptor Cyclic AMP GS Assay; type: cell-based; conditions: HEK-293 cells expressing human A2B, agonist NECA 12 nM
How it was run: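 Stably transfected HEK-293 cells were preincubated with compound for 30 min at room temperature, then stimulated with 12 nM NECA for 60 min. cAMP accumulation was read by FRET (665/620 ratio), and EC50 was fitted from percent of control versus log compound concentration.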

Adenosine A2A = Adenosine A2A (Homo sapiens (Human), UniProt P29274); test: A2A Tag-Lite HTRF assay; type: binding
From the text: Example C. A2A Tag-Lite® HTRF Assay

[2] = Tag-Lite Adenosine A2A labeled cells, fluorescent ligand 12.5 nM, read-out: A2A_Ki
[3] = read-out: A2A_Ki, Tag-Lite Adenosine A2A labeled cells, fluorescent ligand 12.5 nM

human adenosine A2B receptor, sequence (P29275 whole entry): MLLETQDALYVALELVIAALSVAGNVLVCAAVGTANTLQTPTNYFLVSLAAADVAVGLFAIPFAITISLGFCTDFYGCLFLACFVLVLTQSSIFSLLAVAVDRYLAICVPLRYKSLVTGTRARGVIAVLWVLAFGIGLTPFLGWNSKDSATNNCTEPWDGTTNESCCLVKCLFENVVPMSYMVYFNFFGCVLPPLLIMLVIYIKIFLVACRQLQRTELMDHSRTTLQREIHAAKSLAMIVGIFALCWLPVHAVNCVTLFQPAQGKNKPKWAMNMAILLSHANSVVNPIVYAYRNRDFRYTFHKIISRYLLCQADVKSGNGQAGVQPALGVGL
Adenosine A2A, sequence (P29274 whole entry): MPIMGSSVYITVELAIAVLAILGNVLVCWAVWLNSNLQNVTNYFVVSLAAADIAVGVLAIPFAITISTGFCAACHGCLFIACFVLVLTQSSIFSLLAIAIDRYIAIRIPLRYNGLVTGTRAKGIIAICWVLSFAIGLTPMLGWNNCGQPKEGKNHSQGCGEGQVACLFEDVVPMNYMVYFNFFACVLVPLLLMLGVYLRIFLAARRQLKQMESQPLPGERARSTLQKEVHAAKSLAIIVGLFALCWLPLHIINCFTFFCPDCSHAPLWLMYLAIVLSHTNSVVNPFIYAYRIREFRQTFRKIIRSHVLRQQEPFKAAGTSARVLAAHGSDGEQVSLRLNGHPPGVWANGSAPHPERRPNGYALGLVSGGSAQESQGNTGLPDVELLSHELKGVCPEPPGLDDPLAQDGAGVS

CN[C@H]1C[C@H](n2cc(-c3cccc(F)c3Cc3nc4c(N)nc(-c5cccc(C#N)c5F)cn4n3)cn2)C1 [Example 116, 3-(8-amino-2-(2-fluoro-6-(1-((trans)-3-(methylamino)cyclobutyl)-1H-pyrazol-4-yl)benzyl)-[1,2,4]triazolo[1,5-a]pyrazin-6-yl)-2-fluorobenzonitrile]
EC50 ([1]; A2B_cAMP_EC50 (nM)): 10 to 100 nM
Ki (Adenosine A2A; [2]): < 10 nM

N#Cc1cccc(-c2nc(N)c3cc(C(=O)N4CCCCC4)nn3c2-c2ccncn2)c1 [Example 9, 3-(4-Amino-2-(piperidine-1-carbonyl)-7-(pyrimidin-4-yl)pyrazolo[1,5-a]pyrazin-6-yl)benzonitrile]
EC50 ([1]; A2B_cAMP_EC50 (nM)): 10 to 100 nM
Ki (Adenosine A2A; [2]): < 10 nM

Cc1cc(-c2c(-c3cccc(C#N)c3)nc(N)c3nc(C(O)c4c(F)cccc4F)nn23)cc(C)n1 (single isomer, unassigned) [Example 95, 3-(8-amino-2-((2,6-difluorophenyl)(hydroxy)methyl)-5-(2,6-dimethylpyridin-4-yl)-[1,2,4]triazolo[1,5-a]pyrazin-6-yl)benzonitrile]
EC50 ([1]; read-out: A2B_cAMP_EC50): 10 to 100 nM
Ki (Adenosine A2A; [3]): < 10 nM

N#Cc1cccc(-c2cn3nc(Cc4c(F)cccc4-c4cnn(Cc5ccccn5)c4)nc3c(N)n2)c1F [Example 107, 3-(8-amino-2-(2-fluoro-6-(1-(pyridin-2-ylmethyl)-1H-pyrazol-4-yl)benzyl)-[1,2,4]triazolo[1,5-a]pyrazin-6-yl)-2-fluorobenzonitrile]
EC50 ([1]; A2B_cAMP_EC50 (nM)): 10 to 100 nM
Ki (Adenosine A2A; [2]): < 10 nM

N#Cc1cccc(-c2nc(N)c3ncnn3c2-c2ccc3nccn3c2)c1 [Example 124, 3-(8-Amino-5-(imidazo[1,2-a]pyridin-6-yl)-[1,2,4]triazolo[1,5-a]pyrazin-6-yl)benzonitrile]
EC50 ([1]; A2B_cAMP_EC50 (nM)): < 10 nM
Ki (Adenosine A2A; [2]): < 10 nM

CS(=O)(=O)CCn1cc(-c2cccc(F)c2Cc2nc3c(N)nc(-c4cccc(C#N)c4F)cn3n2)cn1 [Example 112, 3-(8-amino-2-(2-fluoro-6-(1-(2-(methylsulfonyl)ethyl)-1H-pyrazol-4-yl)benzyl)-[1,2,4]triazolo[1,5-a]pyrazin-6-yl)-2-fluorobenzonitrile]
EC50 ([1]; A2B_cAMP_EC50 (nM)): < 10 nM
Ki (Adenosine A2A; [2]): < 10 nM

N#Cc1cccc(-c2nc(N)c3cc(Cc4ccccc4F)nn3c2C2=CCN(C(N)=O)CC2)c1 [Example 19, 4-(4-Amino-6-(3-cyanophenyl)-2-(2-fluorobenzyl)pyrazolo[1,5-a]pyrazin-7-yl)-5,6-dihydropyridine-1(2H)-carboxamide]
EC50 ([1]; A2B_cAMP_EC50 (nM)): 10 to 100 nM
Ki (Adenosine A2A; [2]): < 10 nM

CCNC(=O)c1cc2c(N)nc(-c3cccc(C#N)c3)c(C3(C(F)(F)F)CC3)n2n1 [Example 6, 4-Amino-6-(3-cyanophenyl)-N-ethyl-7-(1-(trifluoromethyl)cyclopropyl)pyrazolo[1,5-a]pyrazine-2-carboxamide]
EC50 ([1]; A2B_cAMP_EC50 (nM)): > 1000 nM
Ki (Adenosine A2A): 10 to 100 nM

Cc1n[nH]cc1-c1c(-c2cccc(C#N)c2)nc(N)c2nc(C(O)c3c(F)cccc3F)nn12 (single isomer, unassigned) [Example 103, 3-(8-amino-2-((2,6-difluorophenyl)(hydroxy)methyl)-5-(3-methyl-1H-pyrazol-4-yl)-[1,2,4]triazolo[1,5-a]pyrazin-6-yl)benzonitrile]
EC50 ([1]; read-out: A2B_cAMP_EC50): < 10 nM
Ki (Adenosine A2A; [3]): < 10 nM

Cc1ncoc1-c1c(-c2cccc(C#N)c2)nc(N)c2nc(C(N)c3ccccc3F)nn12 (stereo not drawn) [Example 80, 3-(8-amino-2-(amino(2-fluorophenyl)methyl)-5-(4-methyloxazol-5-yl)-[1,2,4]triazolo[1,5-a]pyrazin-6-yl)benzonitrile]
EC50 ([1]; A2B_cAMP_EC50 (nM)): < 10 nM
Ki (Adenosine A2A; [2]): < 10 nM

N#Cc1cccc(-c2nc(N)c3nc(Cc4c(F)cccc4CN4CC[C@H](C(=O)O)C4)nn3c2-c2ccncn2)c1 [Example 30, (S)-1-(2-((8-Amino-6-(3-cyanophenyl)-5-(pyrimidin-4-yl)-[1,2,4]triazolo[1,5-a]pyrazin-2-yl)methyl)-3-fluorobenzyl)pyrrolidine-3-carboxylic Acid]
EC50 ([1]; A2B_cAMP_EC50 (nM)): 10 to 100 nM
Ki (Adenosine A2A; [2]): < 10 nM

N#Cc1cccc(-c2nc(N)c3nc(Cc4c(F)cccc4CN4CC(C#N)C4)nn3c2-c2ccncn2)c1 [Example 73, 1-(2-((8-amino-6-(3-cyanophenyl)-5-(pyrimidin-4-yl)-[1,2,4]triazolo[1,5-a]pyrazin-2-yl)methyl)-3-fluorobenzyl)azetidine-3-carbonitrile]
EC50 ([1]; A2B_cAMP_EC50 (nM)): < 10 nM
Ki (Adenosine A2A; [2]): < 10 nM

N#Cc1cccc(-c2nc(N)c3nc(C(O)c4c(F)cccc4F)nn3c2-c2cnco2)c1 (single isomer, unassigned) [Example 105, 3-(8-amino-2-((2,6-difluorophenyl)(hydroxy)methyl)-5-(oxazol-5-yl)-[1,2,4]triazolo[1,5-a]pyrazin-6-yl)benzonitrile]
EC50 ([1]; A2B_cAMP_EC50 (nM)): < 10 nM
Ki (Adenosine A2A): < 10 nM

N#Cc1cccc(-c2nc(N)c3nc(Cc4ncccc4-c4cnco4)nn3c2-c2ccncn2)c1 [Example 82, 3-(8-amino-2-((3-(oxazol-5-yl)pyridin-2-yl)methyl)-5-(pyrimidin-4-yl)-[1,2,4]triazolo[1,5-a]pyrazin-6-yl)benzonitrile]
EC50 ([1]; A2B_cAMP_EC50 (nM)): < 10 nM
Ki (Adenosine A2A; [2]): < 10 nM

N#Cc1cccc(-c2nc(N)c3cc(C(=O)N4CCC4)nn3c2-c2ccncn2)c1 [Example 7, 3-(4-Amino-2-(azetidine-1-carbonyl)-7-(pyrimidin-4-yl)pyrazolo[1,5-a]pyrazin-6-yl)benzonitrile]
EC50 ([1]; A2B_cAMP_EC50 (nM)): < 10 nM
Ki (Adenosine A2A; [2]): < 10 nM

N#Cc1cccc(-c2nc(N)c3nc(Cn4ccc5cccnc54)nn3c2-c2ccncn2)c1 [Example 32, 3-(2-((1H-Pyrrolo[2,3-b]pyridin-1-yl)methyl)-8-amino-5-(pyrimidin-4-yl)-[1,2,4]triazolo[1,5-a]pyrazin-6-yl)benzonitrile]
EC50 ([1]; A2B_cAMP_EC50 (nM)): < 10 nM
Ki (Adenosine A2A; [2]): < 10 nM

CCn1nccc1-c1c(-c2cccc(C#N)c2)nc(N)c2cc(Cc3ccccn3)nn12 [Example 18, 3-(4-Amino-7-(1-ethyl-1H-pyrazol-5-yl)-2-(pyridin-2-ylmethyl)pyrazolo[1,5-a]pyrazin-6-yl)benzonitrile]
EC50 ([1]; A2B_cAMP_EC50 (nM)): < 10 nM
Ki (Adenosine A2A; [2]): < 10 nM

Cn1ncc(NCc2cccc(F)c2Cc2nc3c(N)nc(-c4cccc(C#N)c4)c(-c4ccncn4)n3n2)n1 [Example 74, 3-(8-amino-2-(2-fluoro-6-(((2-methyl-2H-1,2,3-triazol-4-yl)amino)methyl)benzyl)-5-(pyrimidin-4-yl)-[1,2,4]triazolo[1,5-a]pyrazin-6-yl)benzonitrile]
EC50 ([1]; A2B_cAMP_EC50 (nM)): < 10 nM
Ki (Adenosine A2A; [2]): < 10 nM

Cc1cnccc1-c1c(-c2cccc(C#N)c2)nc(N)c2nc(C(O)c3c(F)cccc3F)nn12 (single isomer, unassigned) [Example 108, 3-(8-amino-2-((2,6-difluorophenyl)(hydroxy)methyl)-5-(3-methylpyridin-4-yl)-[1,2,4]triazolo[1,5-a]pyrazin-6-yl)benzonitrile]
EC50 ([1]; A2B_cAMP_EC50 (nM)): < 10 nM
Ki (Adenosine A2A): < 10 nM

N#Cc1cccc(-c2nc(N)c3nc(Cc4cccc5ccnn45)nn3c2-c2ccncn2)c1 [Example 46, 3-(8-Amino-2-(pyrazolo[1,5-a]pyridin-7-ylmethyl)-5-(pyrimidin-4-yl)-[1,2,4]triazolo[1,5-a]pyrazin-6-yl)benzonitrile]
EC50 ([1]; A2B_cAMP_EC50 (nM)): < 10 nM
Ki (Adenosine A2A; [2]): < 10 nM

Cc1n[nH]cc1-c1c(-c2cccc(C#N)c2)nc(N)c2nc(C(O)c3c(F)cccc3F)nn12 (single isomer, unassigned) [Example 102, 3-(8-amino-2-((2,6-difluorophenyl)(hydroxy)methyl)-5-(3-methyl-1H-pyrazol-4-yl)-[1,2,4]triazolo[1,5-a]pyrazin-6-yl)benzonitrile]
EC50 ([1]; A2B_cAMP_EC50 (nM)): < 10 nM
Ki (Adenosine A2A): < 10 nM
